Experiments:
GluN1/2A receptors = GluN1/2A receptors (Rattus norvegicus, UniProt P35439+Q00959); type: cell-based; settings: for δ, fraction of the total transmembrane voltage field felt by the blocker at its binding site: calculated from V0 by Equation 4; for V0, change in voltage that results in an e-fold change in the IC50: roughly twice the IC50 of each drug (3 μM 5, 5 μM 7, 2 μM 8, 1 μM 11), 9 voltages −105 to +55 mV, fit of Equation 3; for Hill coefficient (nH): tsA201 cells, GluN1/2A, 1 mM glutamate, −65 mV, fit of Equation 2
GluN1/2A NMDARs = GluN1/2A NMDARs (Rattus norvegicus, UniProt P35439+Q00959); type: cell-based; settings: 10 μM compound; 100 μM NMDA plus 10 μM glycine; voltage pulse to +60 mV
GluN1/2A NMDARs, sequence (Q00959 23-1464, other chains not shown): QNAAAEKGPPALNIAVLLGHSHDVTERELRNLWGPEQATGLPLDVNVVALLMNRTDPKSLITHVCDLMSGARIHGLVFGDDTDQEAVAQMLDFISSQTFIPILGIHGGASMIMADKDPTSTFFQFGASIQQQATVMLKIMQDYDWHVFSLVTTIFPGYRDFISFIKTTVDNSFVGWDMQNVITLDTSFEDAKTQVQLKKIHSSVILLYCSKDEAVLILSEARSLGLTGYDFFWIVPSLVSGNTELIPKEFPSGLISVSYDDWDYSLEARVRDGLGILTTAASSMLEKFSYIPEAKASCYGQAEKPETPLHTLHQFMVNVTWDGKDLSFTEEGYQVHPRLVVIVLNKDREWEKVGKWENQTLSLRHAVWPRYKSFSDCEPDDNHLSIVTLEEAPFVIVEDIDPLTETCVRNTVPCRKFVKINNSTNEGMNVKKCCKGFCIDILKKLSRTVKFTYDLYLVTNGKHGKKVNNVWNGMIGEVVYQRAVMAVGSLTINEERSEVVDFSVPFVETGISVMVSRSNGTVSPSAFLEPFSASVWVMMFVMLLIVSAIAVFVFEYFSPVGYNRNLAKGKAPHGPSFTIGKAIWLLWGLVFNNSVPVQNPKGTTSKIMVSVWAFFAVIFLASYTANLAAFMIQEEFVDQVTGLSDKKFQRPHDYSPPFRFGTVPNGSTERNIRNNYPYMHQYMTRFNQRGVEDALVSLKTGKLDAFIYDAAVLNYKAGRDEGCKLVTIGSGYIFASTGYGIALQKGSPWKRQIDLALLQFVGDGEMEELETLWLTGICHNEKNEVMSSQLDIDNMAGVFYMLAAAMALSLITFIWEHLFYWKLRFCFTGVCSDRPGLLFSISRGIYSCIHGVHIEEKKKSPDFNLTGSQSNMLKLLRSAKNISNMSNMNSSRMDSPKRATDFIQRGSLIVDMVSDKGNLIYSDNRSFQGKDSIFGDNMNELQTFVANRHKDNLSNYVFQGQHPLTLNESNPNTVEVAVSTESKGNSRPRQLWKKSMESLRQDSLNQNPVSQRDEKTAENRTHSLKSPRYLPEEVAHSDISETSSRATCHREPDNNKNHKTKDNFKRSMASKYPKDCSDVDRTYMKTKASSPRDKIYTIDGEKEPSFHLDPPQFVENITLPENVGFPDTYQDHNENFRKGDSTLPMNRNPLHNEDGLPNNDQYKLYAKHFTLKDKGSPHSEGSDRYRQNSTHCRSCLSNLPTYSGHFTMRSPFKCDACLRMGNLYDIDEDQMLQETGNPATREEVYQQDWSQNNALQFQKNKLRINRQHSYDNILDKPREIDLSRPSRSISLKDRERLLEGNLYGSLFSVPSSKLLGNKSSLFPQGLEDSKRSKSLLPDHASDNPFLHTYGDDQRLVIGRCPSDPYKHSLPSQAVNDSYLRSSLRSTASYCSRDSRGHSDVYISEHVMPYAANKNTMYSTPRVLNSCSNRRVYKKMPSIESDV

GluN1/2A receptors, sequence (Q00959 23-1464, other chains not shown): as above

SMILES	δ, fraction of the total transmembrane voltage field felt by the blocker at its binding site (GluN1/2A receptors)	V0, change in voltage that results in an e-fold change in the IC50 (GluN1/2A receptors)	Hill coefficient (nH) (GluN1/2A receptors)	percentage block at +60 mV (GluN1/2A NMDARs)	IC50 (GluN1/2A receptors)
CC12CC3CC1(C)C1(C)CC3(N)CC21C.Cl [Compound 7, (3,4,8,9-Tetramethyltetracydo[4.4.0.0^3,9.0^4,8]dec-1-yl)amme hydrochloride]	0.99 ± 0.05	26.5 ± 1.8 mV	0.98 ± 0.08	2.4 ± 5.1%	–
CC12CC3CC1(C)C1(C)CC3(CN)CC21C.Cl [Compound 8, (3,4,8,9-Tetramethyltetracydo[4.4.0.0^3,9.0^4,8]dec-1-yl)methylamine hydrochloride]	0.87 ± 0.05	29.9 ± 1.9 mV	1.01 ± 0.11	14.7 ± 4.5%	–
CC12CC3CC(C)(C1)CC(N)(C3)C2 [Compound 5, memantine, reference compound]	0.91 ± 0.08	–	1.07 ± 0.27	8.1 ± 4.0%	1840 ± 390 nM
